# Measurements published in patent US20090074680A1, “STATHERIN PEPTIDE AND USE IN MEDICINE” (QUEEN MARY & WESTFIELD COLLEGE, priority 2005, published 2009).
# Where no end group is shown, it is not given here. [ ]: non-standard residue; d: D form. pS = N[C@@H](COP(=O)(O)O)C(=O)O
# Columns and labels:
# [1] = Scanning microradiography (SMR) of demineralisation of HAp blocks coated for 24 h with peptide; settings: for RDHAp of coated HAp compared to uncoated control: 24 h coating, StN21 0.75 to 3.76×10^−4 mol l^−1, lysozyme 0.11×10^−4 mol l^−1, pH 4.5; for rate of demineralisation of HAp (RDHAp): 0.1 mol l^−1 acetic acid pH 4.5, 3 weeks
# From the text: HAp pellets are used in many studies instead of enamel blocks to prevent effect of enamel organic impurities and its natural surface on rate of demineralisation (Anderson et al., 2004). Statherin could not be isolated in a sufficiently pure form from saliva. Therefore N-terminal 21 residue fragment of statherin (StN21) was chemically synthesised using standard FastMoc synthesis (Fields et al., 1990). Also SXE motif, responsible for calcium binding in caseins, is present in this 21 amino-acid fragment of statherin. To exclude the possibility that StN21 act solely as a semi-permeable membrane, lysozyme was used as a negative control.
# Hydroxyapatite (HAp) pellets of 20 wt % porosity (Plasma Biotal Ltd, UK) were sliced into 3×3 mm blocks with 2 mm thickness using Microslice 2 cutter (Malvern Instruments Ltd.). Entire surface of the block, except one side was coated with acid resistant nail varnish. Ten HAp blocks were put into a solution saturated with respect to HAp for 24 hours to equilibrate. After equilibration, four HAp blocks were exposed for 24 h to 0.5 ml of four different concentrations of StN21 peptide dissolved in modified buffer (100 mmol^−1 NaCl, 40 mmol^−1 KCl, 4.3 mmol^−1 Na2HPO4, and 1.4 mmol^−1 KH2PO4, pH 7.4). The concentrations of StN21 peptide were 0.75, 1.13, 1.88 and 3.76×10^−4 mol l^−1. As a negative control one HAp pellet was put into 0.5 ml of solution containing lysozyme at concentration of 0.11×10^−4 mol l^−1.
# Scanning microradiography (SMR) is a technique for observing very subtle changes in mineral mass during re and demineralisation of enamel and HAp. It allows observation period of up to 1000 h without disruptions to the specimen. Also, conditions can be modified and the effect of applied modifications on the samples can be monitored. SMR (Anderson et al., 2004) is an X-ray photon counting technique where the intensity of 15 μm X ray beam is attenuated by passing through the specimen and the transmitted photons are counted by an X-ray detector.
# HAp blocks were placed in the wells of SMR cells (FIG. 2). Each SMR cell contained one HAp block coated with protein and one as a control. As an additional control, in one SMR cell two uncoated HAp blocks were placed in one SMR cell. The reservoir of the SMR cell is approximately 1.2 ml and solution is circulating past the HAp blocks at 0.4 ml min^−1.
# Demineralising solution was 0.1 mol l^−1 acetic acid, buffered to pH 4.5 with 1 mol l^−1 NaOH; 1 mmol l^−1 calcium and 0.6 mmol l^−1 phosphate ions.
# SMR was used to monitor changes in mineral mass at 12 positions 10 μm apart, along 2 lines in each well. Scanning time was 30 s per position. Total period of observation was 3 weeks. The rate of mineral change at each position was calculated by linear least squares fitting.
# [2] = SMR of demineralisation of HAp blocks after 3 min immersion(s) in STN21 solution; settings: STN21 1.88×10^−4 mol l^−1, pH 4.5
# Procedure: STN21 was synthesised using Fmoc solid state synthesis. Hydroxyapatite (HAp) pellets were cut into 5×5×2 mm blocks and covered with acid-resistant varnish leaving one surface exposed and immersed in STN21 solution (1.88×10^−4 mol l^−1) for 3 min. The pellets were then located in scanning microradiography (SMR) cells. Demineralising solution (0.1 mol l^−1 acetic acid, pH 4.5) was circulated (0.4 ml min^−1) for 3 weeks.
# Five samples were exposed to further twice daily 3 min. immersions in STN21 solution. Changes in mineral mass were measured using SMR for 28 days.
# [3] = lysozyme bound to HAp surface; cited from earlier work
Substance,"effect on RDHAp at lowest concentration ([1]; 9.4×10^−6 molar, equivalent to 25 mg/litre)",RDHAp of coated HAp compared to uncoated control [1],"rate of demineralisation of HAp (RDHAp) ([1]; StN21 coating concentration 0.75×10^−4 mol l^−1, 24 h exposure)","rate of demineralisation of HAp (RDHAp) ([1]; StN21 coating concentration 1.13×10^−4 mol l^−1, 24 h exposure)","rate of demineralisation of HAp (RDHAp) ([1]; StN21 coating concentration 1.88×10^−4 mol l^−1, 24 h exposure)","rate of demineralisation of HAp (RDHAp) ([1]; StN21 coating concentration 3.76×10^−4 mol l^−1, 24 h exposure)",decrease in rate of mineral loss compared to a non-coated control ([2]; one 3 min period only) [%],decrease in demineralisation rate ([2]; repeated twice daily 3 min immersions) [%],influence on rate of demineralisation of HAp [3]
"DpSpSEEKFLRRIGRFGYGYGPY (D[pS][pS]EEKFLRRIGRFGYGYGPY; UniProt P02808 20-40, looked up, fragment) [StN21, N-terminal fragment of statherin which consists of 21 amino acids; pS = phosphorylated serine]",effective,significantly lower,2.2 ×10^−5 g cm^−2 h^−1,1.9 ×10^−5 g cm^−2 h^−1,1.7 ×10^−5 g cm^−2 h^−1,1.8 ×10^−5 g cm^−2 h^−1,17,45,
lysozyme [reference compound],,very similar results to uncoated (control) blocks,,,,,,,does not influence rate of demineralisation of HAp
